According to the supplement of paper PMC10307832:

Columns and labels:
Test in all cases: relative viability (nuclei count vs DMSO), 5 days (fraction); higher = more cells survive
[1] = compound: CC1=CC(=CC=C1)NC2=NC(=CS2)C3=CC=NC=C3
Summary of the method: (§1)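 Cells of lung cancer lines were placed in 1536-well plates and kept overnight at 37 °C. Pinning then delivered five library-drug doses (not always all listed), spaced by √10, onto plates anchored with vehicle, and the cells were left 5 days without changing medium. One step fixed, permeabilised and stained them with Hoechst, and MetaXpress counted nuclei in 4× images. Viability, as a median over plates, is treated-well nuclei divided by vehicle-well nuclei, with acceptance only at control CV below 25% and at least one doubling.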

Masitinib = compound: Cc1ccc(NC(=O)c2ccc(CN3CCN(C)CC3)cc2)cc1Nc1nc(-c2cccnc2)cs1 [Masitinib]
Summary of the method: as §1

[2] = compound: CC1=CC(=CC=C1)NC2=NC(=CS2)C3=CC=NC=C3 + CCNC(=O)c1noc(-c2cc(C(C)C)c(O)cc2O)c1-c1ccc(CN2CCOCC2)cc1 [Luminespib] (partner 0.01 µM)
Summary of the method: (§2)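 Lung cancer cell lines in 1536-well plates were dosed by pin tool the day after seeding, either with one drug alone or with a fixed anchor-drug dose plus five library-drug doses (not always all listed) in √10 steps. After 5 days, cells were fixed and their nuclei stained in one step (final 0.05% Triton X-100, 1% formaldehyde, 1 ug/ml Hoechst), then counted on 4× images. Relative viability is the nuclei count in treated wells divided by that in vehicle wells. Values are medians of duplicate plates.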

[3] = compound: CC1=CC(=CC=C1)NC2=NC(=CS2)C3=CC=NC=C3 + COc1cc2c(Oc3ccc(NC(=O)C4(C(=O)Nc5ccc(F)cc5)CC4)cc3F)ccnc2cc1OCCCN1CCOCC1 [Foretinib] (partner 0.25 µM)
Summary of the method: as §2

[4] = compound: CC1=CC(=CC=C1)NC2=NC(=CS2)C3=CC=NC=C3 + COc1cccc2cc(-c3nc([C@H]4CC[C@H](C(=O)O)CC4)n4ncnc(N)c34)[nH]c12 [OSI-027] (partner 0.5 µM)
Summary of the method: as §2

[5] = compound: CC1=CC(=CC=C1)NC2=NC(=CS2)C3=CC=NC=C3 + Cc1cc(Nc2cc(N3CCN(C)CC3)nc(Sc3ccc(NC(=O)C4CC4)cc3)n2)n[nH]1 [Tozasertib] (partner 0.1 µM)
Summary of the method: as §2

[6] = compound: CC1=CC(=CC=C1)NC2=NC(=CS2)C3=CC=NC=C3 + Cc1nc(Nc2ncc(C(=O)Nc3c(C)cccc3Cl)s2)cc(N2CCN(CCO)CC2)n1 [Dasatinib] (partner 0.075 µM)
Summary of the method: as §2

[7] = compound: CC1=CC(=CC=C1)NC2=NC(=CS2)C3=CC=NC=C3 + N=C(N)NC(=N)NCCc1ccccc1 [Phenformin] (partner 250 µM)
Summary of the method: as §2

Masitinib + Luminespib = compound: Cc1ccc(NC(=O)c2ccc(CN3CCN(C)CC3)cc2)cc1Nc1nc(-c2cccnc2)cs1 [Masitinib] + CCNC(=O)c1noc(-c2cc(C(C)C)c(O)cc2O)c1-c1ccc(CN2CCOCC2)cc1 [Luminespib] (partner 0.01 µM)
Summary of the method: as §2

Masitinib + Foretinib = compound: Cc1ccc(NC(=O)c2ccc(CN3CCN(C)CC3)cc2)cc1Nc1nc(-c2cccnc2)cs1 [Masitinib] + COc1cc2c(Oc3ccc(NC(=O)C4(C(=O)Nc5ccc(F)cc5)CC4)cc3F)ccnc2cc1OCCCN1CCOCC1 [Foretinib] (partner 0.25 µM)
Summary of the method: as §2

Masitinib + OSI-027 = compound: Cc1ccc(NC(=O)c2ccc(CN3CCN(C)CC3)cc2)cc1Nc1nc(-c2cccnc2)cs1 [Masitinib] + COc1cccc2cc(-c3nc([C@H]4CC[C@H](C(=O)O)CC4)n4ncnc(N)c34)[nH]c12 [OSI-027] (partner 0.5 µM)
Summary of the method: as §2

Masitinib + Tozasertib = compound: Cc1ccc(NC(=O)c2ccc(CN3CCN(C)CC3)cc2)cc1Nc1nc(-c2cccnc2)cs1 [Masitinib] + Cc1cc(Nc2cc(N3CCN(C)CC3)nc(Sc3ccc(NC(=O)C4CC4)cc3)n2)n[nH]1 [Tozasertib] (partner 0.1 µM)
Summary of the method: as §2

Masitinib + Dasatinib = compound: Cc1ccc(NC(=O)c2ccc(CN3CCN(C)CC3)cc2)cc1Nc1nc(-c2cccnc2)cs1 [Masitinib] + Cc1nc(Nc2ncc(C(=O)Nc3c(C)cccc3Cl)s2)cc(N2CCN(CCO)CC2)n1 [Dasatinib] (partner 0.075 µM)
Summary of the method: as §2

Masitinib + Phenformin = compound: Cc1ccc(NC(=O)c2ccc(CN3CCN(C)CC3)cc2)cc1Nc1nc(-c2cccnc2)cs1 [Masitinib] + N=C(N)NC(=N)NCCc1ccccc1 [Phenformin] (partner 250 µM)
Summary of the method: as §2

NCI-H1623
relative viability ([1]; 0.08 µM): 0.948 | relative viability ([1]; 0.253 µM): 0.886 | relative viability ([1]; 0.8 µM): 0.894 | relative viability ([1]; 2.53 µM): 0.81 | relative viability ([1]; 8 µM): 0.84 | relative viability (Masitinib; 0.01 µM): 0.982 | relative viability (Masitinib; 0.03162 µM): 0.883 | relative viability (Masitinib; 0.1 µM): 0.894 | relative viability (Masitinib; 0.3162 µM): 0.889 | relative viability (Masitinib; 1 µM): 0.905 | relative viability ([2]; first compound 0.08 µM): 0.496 | relative viability ([2]; first compound 0.253 µM): 0.453 | relative viability ([2]; first compound 0.8 µM): 0.369 | relative viability ([2]; first compound 2.53 µM): 0.371 | relative viability ([2]; first compound 8 µM): 0.391 | relative viability ([3]; first compound 0.08 µM): 0.836 | relative viability ([3]; first compound 0.253 µM): 0.729 | relative viability ([3]; first compound 0.8 µM): 0.776 | relative viability ([3]; first compound 2.53 µM): 0.699 | relative viability ([3]; first compound 8 µM): 0.824 | relative viability ([4]; first compound 0.08 µM): 0.444 | relative viability ([4]; first compound 0.253 µM): 0.359 | relative viability ([4]; first compound 0.8 µM): 0.391 | relative viability ([4]; first compound 2.53 µM): 0.405 | relative viability ([4]; first compound 8 µM): 0.384 | relative viability ([5]; first compound 0.08 µM): 0.393 | relative viability ([5]; first compound 0.253 µM): 0.403 | relative viability ([5]; first compound 0.8 µM): 0.377 | relative viability ([5]; first compound 2.53 µM): 0.385 | relative viability ([5]; first compound 8 µM): 0.363 | relative viability ([6]; first compound 0.08 µM): 0.525 | relative viability ([6]; first compound 0.253 µM): 0.506 | relative viability ([6]; first compound 0.8 µM): 0.625 | relative viability ([6]; first compound 2.53 µM): 0.521 | relative viability ([6]; first compound 8 µM): 0.575 | relative viability ([7]; first compound 0.08 µM): 0.577 | relative viability ([7]; first compound 0.253 µM): 0.585 | relative viability ([7]; first compound 0.8 µM): 0.564 | relative viability ([7]; first compound 2.53 µM): 0.513 | relative viability ([7]; first compound 8 µM): 0.565 | relative viability (Masitinib + Luminespib; first compound 0.01 µM): 0.493 | relative viability (Masitinib + Luminespib; first compound 0.03162 µM): 0.451 | relative viability (Masitinib + Luminespib; first compound 0.1 µM): 0.814 | relative viability (Masitinib + Luminespib; first compound 0.3162 µM): 0.427 | relative viability (Masitinib + Luminespib; first compound 1 µM): 0.506 | relative viability (Masitinib + Foretinib; first compound 0.01 µM): 0.771 | relative viability (Masitinib + Foretinib; first compound 0.03162 µM): 0.739 | relative viability (Masitinib + Foretinib; first compound 0.1 µM): 0.771 | relative viability (Masitinib + Foretinib; first compound 0.3162 µM): 0.707 | relative viability (Masitinib + Foretinib; first compound 1 µM): 0.735 | relative viability (Masitinib + OSI-027; first compound 0.01 µM): 0.373 | relative viability (Masitinib + OSI-027; first compound 0.03162 µM): 0.507 | relative viability (Masitinib + OSI-027; first compound 0.1 µM): 0.447 | relative viability (Masitinib + OSI-027; first compound 0.3162 µM): 0.318 | relative viability (Masitinib + OSI-027; first compound 1 µM): 0.367 | relative viability (Masitinib + Tozasertib; first compound 0.01 µM): 0.447 | relative viability (Masitinib + Tozasertib; first compound 0.03162 µM): 0.548 | relative viability (Masitinib + Tozasertib; first compound 0.1 µM): 0.477 | relative viability (Masitinib + Tozasertib; first compound 0.3162 µM): 0.398 | relative viability (Masitinib + Tozasertib; first compound 1 µM): 0.35 | relative viability (Masitinib + Dasatinib; first compound 0.01 µM): 0.488 | relative viability (Masitinib + Dasatinib; first compound 0.03162 µM): 0.446 | relative viability (Masitinib + Dasatinib; first compound 0.1 µM): 0.551 | relative viability (Masitinib + Dasatinib; first compound 0.3162 µM): 0.453 | relative viability (Masitinib + Dasatinib; first compound 1 µM): 0.43 | relative viability (Masitinib + Phenformin; first compound 0.01 µM): 0.509 | relative viability (Masitinib + Phenformin; first compound 0.03162 µM): 0.494 | relative viability (Masitinib + Phenformin; first compound 0.1 µM): 0.564 | relative viability (Masitinib + Phenformin; first compound 0.3162 µM): 0.52 | relative viability (Masitinib + Phenformin; first compound 1 µM): 0.533
